The text below walks through data of patent US6337326B1, “N-aryl-(homopiperazinyl)-cyclohexyl amines” (American Home Products Corporation, priority 1999, dated 2002).

Where a name gives a salt, the structure may show the parent alone.

Data set [1] deals with T1, 5-HT transporter (Rattus norvegicus, UniProt P31652).
T1 construct: from tissue; host or cells: frontal cortical membranes of male Sprague-Dawley rats
Put plainly: Rat Brain 3H-Paroxetine Binding Assay (RB 5HT Transporter). As to conditions: frontal cortical membranes from male S.D. rats, 3H-paroxetine 0.1 nM, 60 min, 25° C. The procedure:
Rat Brain ^3H-Paroxetine Binding Assay (RB 5HT Transporter)
The following assay was used to determine a compound's affinity of the 5-HT transporter.
A protocol similar to that used by Cheetham et. al. (Neuropharmacol. 1993, 32, 737) was used. Briefly, frontal cortical membranes prepared from male S.D. rats were incubated with ^3H-parxetine (0.1 nM) for 60 min. at 25° C. All tubes also contained either vehicle, test compound (one to eight concentrations), or a saturating concentration of fluoxetine (10 μM) to define […]. All reactions are terminated by the addition of ice cold Tris buffer followed by rapid filtration using a Tom Tech filtration device to separate bound from free ^3H-paroxetine. Bound radioactivity was quantitated using a Wallac 1205 Beta Plate® counter. Nonlinear regression analysis was used to determine IC50 values which were converted to Ki values using the method of Cheng and Prusoff (Biochem. Pharmacol. 1973, 22, 3099); [formula]

The target in data set [2] is T2, Human 5-HT Transporter (Homo sapiens, UniProt P31645).
T2 construct: endogenous in cells; host or cells: Jar cells (human carcinoma cell line), treated with staurosporine
The data set is described as follows: Inhibition of 3H-5-HT Uptake by cells Possessing the Human 5-HT Transporter (HC 5-HT Transporter). The format is cell-based. The conditions noted are these: Jar cells (human carcinoma) treated with staurosporine, 37° C., 5 min. The procedure: [Staurosporine greatly increases the expression of the 5-HT-transporter.] On the day of assay, vehicle, excess of fluoxetine, or test compound is added to various wells on the plate. All wells then receive ^3H-5-HT and are incubated at 37° C. for 5 min. The wells are then washed with ice cold 50 mM Tris HCl (pH 7.4) buffer and aspirated to remove free ^3H-5-HT. 25 μl of 0.25 M NaOH is then added to each well to lyse the cells and 75 μl scintillation cocktail (Microscint™ 20) added prior to quantitation on a Packard TopCount machine. Tubes with vehicle represent total possible uptake, radioactivity counted in tubes with fluoxetine represent nonspecific binding/uptake and is subtracted from the total possible uptake to give total possible specific uptake. This nonspecific binding (usual low in number) is then subtracted from the counts obtained in wells with various test compounds (or different concentrations of test drug) to give specific uptake in the presence of drug. Specific uptake is then expressed as a % of control values and is analyzed using nonlinear regression analysis (Prizm) to determine IC50 values. If the compound is active at inhibiting 5-HT uptake, its counts will be close to that obtained with fluoxetine.

T1 sequence (P31652 whole entry): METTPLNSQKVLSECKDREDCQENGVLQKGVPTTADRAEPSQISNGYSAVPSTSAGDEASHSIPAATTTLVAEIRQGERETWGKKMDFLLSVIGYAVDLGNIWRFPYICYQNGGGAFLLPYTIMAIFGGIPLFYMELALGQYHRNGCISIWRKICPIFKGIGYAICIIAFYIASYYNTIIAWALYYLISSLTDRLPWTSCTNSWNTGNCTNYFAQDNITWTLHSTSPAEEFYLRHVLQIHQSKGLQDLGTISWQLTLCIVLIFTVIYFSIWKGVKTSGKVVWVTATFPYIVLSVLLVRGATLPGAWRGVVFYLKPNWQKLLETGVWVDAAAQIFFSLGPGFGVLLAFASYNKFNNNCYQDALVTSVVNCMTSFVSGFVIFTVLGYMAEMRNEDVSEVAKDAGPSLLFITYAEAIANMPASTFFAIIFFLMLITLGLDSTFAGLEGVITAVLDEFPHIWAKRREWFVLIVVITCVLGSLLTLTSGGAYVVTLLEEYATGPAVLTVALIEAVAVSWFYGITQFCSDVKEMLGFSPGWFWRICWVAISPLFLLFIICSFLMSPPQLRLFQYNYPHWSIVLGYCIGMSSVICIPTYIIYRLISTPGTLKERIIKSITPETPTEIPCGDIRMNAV
T2 sequence (P31645 whole entry): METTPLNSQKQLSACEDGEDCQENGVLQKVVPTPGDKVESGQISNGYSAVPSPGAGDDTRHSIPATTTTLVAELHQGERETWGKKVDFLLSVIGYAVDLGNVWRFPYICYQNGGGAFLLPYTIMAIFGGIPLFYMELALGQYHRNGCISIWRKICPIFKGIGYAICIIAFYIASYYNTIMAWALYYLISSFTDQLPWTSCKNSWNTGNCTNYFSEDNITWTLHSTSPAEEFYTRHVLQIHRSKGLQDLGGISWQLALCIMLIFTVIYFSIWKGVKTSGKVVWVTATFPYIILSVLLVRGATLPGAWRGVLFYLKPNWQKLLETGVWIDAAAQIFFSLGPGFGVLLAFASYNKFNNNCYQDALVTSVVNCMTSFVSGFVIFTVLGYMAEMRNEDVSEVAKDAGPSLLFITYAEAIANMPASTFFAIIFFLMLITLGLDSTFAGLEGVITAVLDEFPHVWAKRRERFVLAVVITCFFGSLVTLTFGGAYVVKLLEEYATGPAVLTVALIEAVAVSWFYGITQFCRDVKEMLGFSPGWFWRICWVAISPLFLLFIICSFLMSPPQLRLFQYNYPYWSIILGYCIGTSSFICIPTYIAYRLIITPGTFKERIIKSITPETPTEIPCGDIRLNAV

As usually defined, the Ki is a dissociation constant, usually derived from enzyme kinetics or from competition with a known ligand. Read a low Ki as a stronger hold on the target. With `COc1ccccc1N1CCCN(C2CCC(c3c[nH]c4ccc(C#N)cc34)CC2)CC1` (stereo not shown) [Example 4], the Ki in data set [1] stood at 0.027 µM.

The IC50 is the point on the concentration scale where inhibition reaches its midpoint. Low readings indicate greater potency, high ones weaker potency. As to `Fc1ccc2c(C3CCC(N4CCCN(c5cccc(C(F)(F)F)c5)CC4)CC3)c[nH]c2c1` (stereo not shown) [Example 11, 3-{4-[4-(3-Trifluoromethyl-phenyl)-[1,4]diazepan-1-yl]-cyclohexyl}-6-fluoro-1H-indole], the affinity in data set [1] corresponds to a Ki of 0.027 µM. Besides, the midpoint of inhibition in data set [2], the IC50, lay at 1.28 µM.

In the case of `Fc1ccc2[nH]cc(C3CCC(N4CCCN(c5cccc6cccnc56)CC4)CC3)c2c1` (stereo not shown) [Example 6, 8-{4-[4-(5-Fluoro-1H-indol-3-yl)-cyclohexyl]-[1,4]diazepan-1-yl}-quinoline], in data set [1], the Ki turned out to be 0.009 µM. This compound also gave an IC50 in data set [2] of 0.602 µM.

As usually defined, the melting point is the temperature of the solid-liquid transition. On to `COc1ccccc1N1CCCN(C2CCC(c3c[nH]c4ccccc34)CC2)CC1` (stereo not shown) (as salt: hydrochloride) [Example 1, 3-{4-[4-(2-Methoxy-phenyl)-[1,4]diazepan-1-yl]-cyclohexyl}-1H-indole], for which the melting point was in the range of 148 to 160 °C.

In the case of `Fc1ccc2c(C3CCC(N4CCCN(c5cccc6cccnc56)CC4)CC3)c[nH]c2c1` (stereo not shown) [Example 8, 8-{4-[4-(6-Fluoro-1H-indol-3-yl)-cyclohexyl]-[1,4]diazepan-1-yl}-quinoline], affinity in data set [1] was put at a Ki of 0.0027 µM. The IC50 in data set [2] is 0.317 µM.

The compound `Fc1ccc2[nH]cc(C3CCC(N4CCCN(c5cccc(C(F)(F)F)c5)CC4)CC3)c2c1` (stereo not shown) [Example 9, 3-{4-[4-(3-Trifluoromethyl-phenyl)-[1,4]diazepan-1-yl]-cyclohexyl}-5-fluoro-1H-indole] yielded a Ki in data set [1] of 0.086 µM. In addition, half-maximal inhibition in data set [2] (IC50) was put at 4.47 µM.

As to `COc1ccccc1N1CCCN(C2CCC(c3c[nH]c4ccccc34)CC2)CC1` (stereo not shown) [Example 1, 3-{4-[4-(2-Methoxy-phenyl)-[1,4]diazepan-1-yl]-cyclohexyl}-1H-indole], in data set [1], the Ki is 0.042 µM. Further, the IC50 in data set [2] turned out to be 0.578 µM.

As for `COc1ccccc1N1CCCN(C2CCC(c3c[nH]c4ccc(F)cc34)CC2)CC1` (stereo not shown) [Example 3, 3-{4-[4-(2-Methoxy-phenyl)-[1,4]diazepan-1-yl]-cyclohexyl}-5-fluoro-1H-indole], the Ki in data set [1] is 0.012 µM. Also, half-maximal inhibition in data set [2] (IC50) was put at 1.14 µM.

In the case of `c1cnc2c(N3CCCN(C4CCC(c5c[nH]c6ccccc56)CC4)CC3)cccc2c1` (stereo not shown) (as salt: hydrochloride) [Example 2, 8-{4-[4-(1H-Indol-3-yl)-cyclohexyl]-[1,4]diazepan-1-yl}-quinoline], the melting point was in the range of 152 to 165 °C.

For `N#Cc1ccc2[nH]cc(C3CCC(N4CCCN(c5cccc(C(F)(F)F)c5)CC4)CC3)c2c1` (stereo not shown) [Example 10], the Ki in data set [1] is 0.207 µM. Further, in data set [2], inhibition was half-maximal at 3.76 µM (IC50).

In turn, `c1cnc2c(N3CCCN(C4CCC(c5c[nH]c6ccccc56)CC4)CC3)cccc2c1` (stereo not shown) [Example 2, 8-{4-[4-(1H-Indol-3-yl)-cyclohexyl]-[1,4]diazepan-1-yl}-quinoline] yielded a Ki in data set [1] of 0.009 µM. This compound also displayed an IC50 in data set [2] of 0.399 µM.

In data set [1], `COc1ccccc1N1CCCN(C2CCC(c3c[nH]c4cc(F)ccc34)CC2)CC1` (stereo not shown) [Example 5, 3-{4-[4-(2-Methoxy-phenyl)-[1,4]diazepan-1-yl]-cyclohexyl}-6-fluoro-1H-indole] showed a Ki of 0.0049 µM. The same compound gave an IC50 in data set [2] of 0.272 µM.

Regarding `N#Cc1ccc2[nH]cc(C3CCC(N4CCCN(c5cccc6cccnc56)CC4)CC3)c2c1` (stereo not shown) [Example 7, 8-{4-[4-(5-Cyano-1H-indol-3-yl)-cyclohexyl]-[1,4]diazepan-1-yl}-quinoline], the inhibition constant Ki in data set [1] was 0.011 µM.
